{
  "source": "the Kinase Knowledgebase extract (Sharma et al. 2016)",
  "key": {"[1]": {"target": "EGFR (human) (UniProt P00533)", "sequence (P00533 whole entry, looked up)": "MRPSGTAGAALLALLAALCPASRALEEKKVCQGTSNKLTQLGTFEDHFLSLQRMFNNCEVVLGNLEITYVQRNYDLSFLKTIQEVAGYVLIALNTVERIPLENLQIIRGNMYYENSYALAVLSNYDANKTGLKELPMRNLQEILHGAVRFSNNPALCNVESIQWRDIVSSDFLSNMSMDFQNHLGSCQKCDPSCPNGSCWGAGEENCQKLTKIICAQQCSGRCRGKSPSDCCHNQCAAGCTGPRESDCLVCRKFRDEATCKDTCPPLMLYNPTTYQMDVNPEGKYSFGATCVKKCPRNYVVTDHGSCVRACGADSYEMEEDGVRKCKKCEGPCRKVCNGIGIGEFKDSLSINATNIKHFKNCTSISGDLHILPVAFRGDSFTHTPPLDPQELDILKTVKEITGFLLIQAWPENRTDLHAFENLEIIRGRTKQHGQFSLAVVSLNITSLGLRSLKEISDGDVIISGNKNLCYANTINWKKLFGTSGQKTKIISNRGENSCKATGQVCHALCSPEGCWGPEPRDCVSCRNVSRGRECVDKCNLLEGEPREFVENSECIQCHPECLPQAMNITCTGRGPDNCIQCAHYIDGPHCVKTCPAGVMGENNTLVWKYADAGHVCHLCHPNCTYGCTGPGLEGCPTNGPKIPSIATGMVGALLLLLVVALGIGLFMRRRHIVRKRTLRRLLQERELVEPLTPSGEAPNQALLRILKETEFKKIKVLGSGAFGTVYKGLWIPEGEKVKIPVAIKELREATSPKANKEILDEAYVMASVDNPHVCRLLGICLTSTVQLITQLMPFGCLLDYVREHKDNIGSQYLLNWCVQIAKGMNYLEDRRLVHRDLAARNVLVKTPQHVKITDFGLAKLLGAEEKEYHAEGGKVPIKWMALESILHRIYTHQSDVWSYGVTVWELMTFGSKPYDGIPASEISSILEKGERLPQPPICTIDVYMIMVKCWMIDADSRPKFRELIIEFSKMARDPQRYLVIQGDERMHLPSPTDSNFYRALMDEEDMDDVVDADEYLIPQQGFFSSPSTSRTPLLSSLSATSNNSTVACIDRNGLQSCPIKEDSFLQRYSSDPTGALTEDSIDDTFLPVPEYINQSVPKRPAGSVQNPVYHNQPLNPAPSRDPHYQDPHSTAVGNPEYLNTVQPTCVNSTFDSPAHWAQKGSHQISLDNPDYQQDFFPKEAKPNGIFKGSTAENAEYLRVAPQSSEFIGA", "settings": "mda435"}, "[2]": {"target": "EGFR (human) (UniProt P00533)", "settings": "a2780ddp"}, "[3]": {"target": "EGFR (human) (UniProt P00533)", "settings": "a2780s"}, "[4]": {"target": "EGFR (human) (UniProt P00533)", "settings": "a431"}, "[5]": {"target": "EGFR (human) (UniProt P00533)", "settings": "sw 620"}, "[6]": {"target": "EGFR (human) (UniProt P00533)", "settings": "skbr3"}, "[7]": {"target": "EGFR (human) (UniProt P00533)", "settings": "her2/3t3"}, "[8]": {"target": "EGFR (human) (UniProt P00533)", "settings": "3t3"}, "[9]": {"target": "EGFR (UniProt P00533)", "sequence (P00533 whole entry, looked up)": "as above"}, "[10]": {"target": "EGFR (human) (UniProt P00533)", "settings": "mcf-7"}, "[11]": {"target": "EGFR (human) (UniProt P00533)", "settings": "lox"}},
  "note": "Values joined by “and” are separate entries in the source; they are usually repeats but may differ in a detail not shown here. Equal values may be shown once.",
  "data": [
    {"smiles": "N#Cc1cnc2cnc(F)cc2c1Nc1cccc(Br)c1", "values": [
      {"measurement": "IC50", "setting": "[1]", "result": "> 5", "unit": "µg/mL"},
      {"measurement": "IC50", "setting": "[2]", "result": "> 5", "unit": "µg/mL"},
      {"measurement": "IC50", "setting": "[3]", "result": 3.33, "unit": "µg/mL"},
      {"measurement": "IC50", "setting": "[4]", "result": 3.92, "unit": "µg/mL"},
      {"measurement": "IC50", "setting": "[5]", "result": "> 5", "unit": "µg/mL"},
      {"measurement": "IC50", "setting": "[6]", "result": "> 5", "unit": "µg/mL"}
    ]},
    {"smiles": "N#Cc1cnc2cnc(N)cc2c1Nc1cccc(Br)c1", "values": [
      {"measurement": "IC50", "setting": "[1]", "result": "> 5", "unit": "µg/mL"},
      {"measurement": "IC50", "setting": "[2]", "result": 3.1, "unit": "µg/mL"},
      {"measurement": "IC50", "setting": "[3]", "result": 3.5, "unit": "µg/mL"},
      {"measurement": "IC50", "setting": "[4]", "result": 0.4, "unit": "µg/mL"},
      {"measurement": "IC50", "setting": "[5]", "result": "> 5", "unit": "µg/mL"},
      {"measurement": "IC50", "setting": "[6]", "result": 4.1, "unit": "µg/mL"}
    ]},
    {"smiles": "C[Si](C)(C)C#Cc1cc2c(Nc3cccc(Br)c3)c(C#N)cnc2cn1", "values": [
      {"measurement": "IC50", "setting": "[1]", "result": 4.2, "unit": "µg/mL"},
      {"measurement": "IC50", "setting": "[2]", "result": 2.97, "unit": "µg/mL"},
      {"measurement": "IC50", "setting": "[3]", "result": 2.34, "unit": "µg/mL"},
      {"measurement": "IC50", "setting": "[4]", "result": 3.06, "unit": "µg/mL"},
      {"measurement": "IC50", "setting": "[5]", "result": 4.72, "unit": "µg/mL"},
      {"measurement": "IC50", "setting": "[6]", "result": 3.59, "unit": "µg/mL"}
    ]},
    {"smiles": "CN(C)C/C=C/C(=O)Nc1cc2c(Nc3cccc(Br)c3)c(C#N)cnc2cn1", "values": [
      {"measurement": "IC50", "setting": "[7]", "result": "0.106 µg/mL and 0.0436 µg/mL"},
      {"measurement": "IC50", "setting": "[1]", "result": 0.464, "unit": "µg/mL"},
      {"measurement": "IC50", "setting": "[4]", "result": 0.088, "unit": "µg/mL"},
      {"measurement": "IC50", "setting": "[8]", "result": "0.272 µg/mL and 0.373 µg/mL"},
      {"measurement": "IC50", "setting": "[5]", "result": 0.356, "unit": "µg/mL"},
      {"measurement": "IC50", "setting": "[6]", "result": 0.0357, "unit": "µg/mL"}
    ]},
    {"smiles": "CN(C)CCOc1cc2c(Nc3ccc(F)c(Cl)c3)c(C#N)cnc2cn1", "values": [
      {"measurement": "IC50", "setting": "[7]", "result": "> 5", "unit": "µg/mL"},
      {"measurement": "IC50", "setting": "[1]", "result": "> 5", "unit": "µg/mL"},
      {"measurement": "IC50", "setting": "[4]", "result": 2.23, "unit": "µg/mL"},
      {"measurement": "IC50", "setting": "[8]", "result": 4.48, "unit": "µg/mL"},
      {"measurement": "IC50", "setting": "[5]", "result": "> 5", "unit": "µg/mL"},
      {"measurement": "IC50", "setting": "[6]", "result": 4.63, "unit": "µg/mL"}
    ]},
    {"smiles": "CC#CC(=O)Nc1cnc2ncc(C#N)c(Nc3ccc(F)c(Cl)c3)c2c1", "values": [
      {"measurement": "IC50", "setting": "[9]", "result": "> 0.1", "unit": "µM"}
    ]},
    {"smiles": "CC#CC(=O)Nc1cc2c(Nc3cccc(Br)c3)c(C#N)cnc2cn1", "values": [
      {"measurement": "IC50", "setting": "[1]", "result": 0.88, "unit": "µg/mL"},
      {"measurement": "IC50", "setting": "[2]", "result": 0.13, "unit": "µg/mL"},
      {"measurement": "IC50", "setting": "[4]", "result": 0.23, "unit": "µg/mL"},
      {"measurement": "IC50", "setting": "[5]", "result": 0.17, "unit": "µg/mL"},
      {"measurement": "IC50", "setting": "[10]", "result": "0.98 µM and 0.4 µM"},
      {"measurement": "IC50", "setting": "[11]", "result": 0.07, "unit": "µg/mL"},
      {"measurement": "IC50", "setting": "[6]", "result": 0.12, "unit": "µg/mL"}
    ]},
    {"smiles": "COc1ccc(CNc2cc3c(Nc4cccc(Br)c4)c(C#N)cnc3cn2)cc1", "values": [
      {"measurement": "IC50", "setting": "[1]", "result": 2.4, "unit": "µg/mL"},
      {"measurement": "IC50", "setting": "[2]", "result": 1.8, "unit": "µg/mL"},
      {"measurement": "IC50", "setting": "[3]", "result": 1, "unit": "µg/mL"},
      {"measurement": "IC50", "setting": "[4]", "result": 0.4, "unit": "µg/mL"},
      {"measurement": "IC50", "setting": "[5]", "result": 4.1, "unit": "µg/mL"},
      {"measurement": "IC50", "setting": "[6]", "result": 2.9, "unit": "µg/mL"}
    ]},
    {"smiles": "N#Cc1cnc2cnc(NCCN3CCOCC3)cc2c1Nc1cccc(Br)c1", "values": [
      {"measurement": "IC50", "setting": "[1]", "result": 49, "unit": "µg/mL"},
      {"measurement": "IC50", "setting": "[3]", "result": 0.5, "unit": "µg/mL"},
      {"measurement": "IC50", "setting": "[4]", "result": 0.5, "unit": "µg/mL"},
      {"measurement": "IC50", "setting": "[5]", "result": 41, "unit": "µg/mL"},
      {"measurement": "IC50", "setting": "[11]", "result": 57, "unit": "µg/mL"}
    ]},
    {"smiles": "CN(C)C/C=C/C(=O)Nc1cnc2ncc(C#N)c(Nc3cccc(Br)c3)c2c1", "values": [
      {"measurement": "IC50", "setting": "[9]", "result": "> 0.8", "unit": "µM"},
      {"measurement": "IC50", "setting": "[1]", "result": "> 5", "unit": "µg/mL"},
      {"measurement": "IC50", "setting": "[2]", "result": 4, "unit": "µg/mL"},
      {"measurement": "IC50", "setting": "[3]", "result": 1.77, "unit": "µg/mL"},
      {"measurement": "IC50", "setting": "[4]", "result": 2.76, "unit": "µg/mL"},
      {"measurement": "IC50", "setting": "[5]", "result": "> 5", "unit": "µg/mL"},
      {"measurement": "IC50", "setting": "[6]", "result": 4.83, "unit": "µg/mL"}
    ]},
    {"smiles": "CNc1cc2c(Nc3cccc(Br)c3)c(C#N)cnc2cn1", "values": [
      {"measurement": "IC50", "setting": "[1]", "result": 0.98, "unit": "µg/mL"},
      {"measurement": "IC50", "setting": "[4]", "result": "0.31 µg/mL and 0.209 µg/mL"},
      {"measurement": "IC100", "setting": "[4]", "result": 0.59, "unit": "µM"},
      {"measurement": "IC50", "setting": "[5]", "result": 4.62, "unit": "µg/mL"},
      {"measurement": "IC50", "setting": "[10]", "result": "10.9 µM and 3.87 µM"},
      {"measurement": "IC50", "setting": "[11]", "result": 3.6, "unit": "µg/mL"},
      {"measurement": "IC50", "setting": "[6]", "result": 1.88, "unit": "µg/mL"}
    ]},
    {"smiles": "CN(C)c1cc[n+](-c2cc3c(Nc4cccc(Br)c4)c(C#N)cnc3cn2)cc1", "values": [
      {"measurement": "IC50", "setting": "[1]", "result": 47, "unit": "µg/mL"},
      {"measurement": "IC50", "setting": "[2]", "result": 52, "unit": "µg/mL"},
      {"measurement": "IC50", "setting": "[3]", "result": 31, "unit": "µg/mL"},
      {"measurement": "IC50", "setting": "[4]", "result": 59, "unit": "µg/mL"},
      {"measurement": "IC50", "setting": "[5]", "result": 42, "unit": "µg/mL"},
      {"measurement": "IC50", "setting": "[11]", "result": 56, "unit": "µg/mL"},
      {"measurement": "IC50", "setting": "[6]", "result": 41, "unit": "µg/mL"}
    ]}
  ]
}
